In patent US12194081B2, “ARGINASE1 polypeptides” (IO BIOTECH APS, priority 2018, dated 2025):

Tests used:
[1] = tested on: PBMCs from cancer patients and healthy donors; assay: in vitro IFNγ ELISPOT of PBMCs after 7 days with peptide and IL-2; format: cell-based, human
Method: PBMCs from healthy donors were isolated using density gradient separation over LymphoprepTM (STEMCELL Technologies) and cryopreserved at -150° C. in FBS supplemented with 10% DMSO. PBMCs from cancer patients were isolated from blood sample a minimum of four weeks after the termination of any anti-cancer therapy. The protocol was approved by the Scientific Ethics Committee for The Capital Region of Denmark and conducted in accordance with the provisions of the Declaration of Helsinki. Written informed consent from the patients was obtained before study entry. […] The sequences of the peptides used in these experiments are shown in full below in alignment with each other, and are also set out in the section entitled “Sequences”). Peptides are described by SEQ ID NO, by name, or by reference to the start and end positions of each peptide sequence within the full length sequence of Arginase 1. Each may be used interchangeably. For example, the peptide of SEQ ID NO: 1 may alternatively be referred to by the name ArgLong2, or may alternatively be referred to as […]-206 (given a start position of 169 and end position of 206). The intended reference in each case will be clear from the context. For in vitro ELISPOT, PBMCs from cancer patients and healthy donors were pulsed with 20 μM of Arginase 1-derived peptides and 120 U/ml IL-2 in 24-well plates for 7 days before being used in an ELISPOT assay. The cells were placed in 96-well nitrocellulose ELISPOT plates (MultiScreen MAIP […]; Millipore) pre-coated with IFNγ capture antibody (Mabtech). Arginase peptides added to a final concentration of 5 μM and plates incubated at 37° C. for 14-16 hours. After the incubation the cells were washed off and secondary biotinylated Ab (Mabtech, cat. 3420-6-1000) was added for 2 hours at room temperature. Unbound secondary antibody was washed off and streptavidin conjugated alkaline phosphatase (AP) (Mabtech, cat. 3310-10) was added for 1 hour at room temperature. Unbound conjugated enzyme was washed off and the assay was developed by adding BCIP/NBT substrate (Mabtech, cat. 3650-10). Developed ELISPOT plates were analyzed on CTL ImmunoSpot S6 Ultimate-V analyzer using Immunospot software v5.1. Responses were reported as the difference between average numbers of spots in wells stimulated with Arginase 1 and wells without added peptide.

[2] = tested on: MC38 colon adenocarcinoma; assay: Tumour vaccination, MC38 colon adenocarcinoma tumour model; format: in vivo, mouse; conditions: 100 μg ArgLong2 with Montanide, days 0, 7, 14; p=0.030 Mixed effects analysis; FIG. 7
Method: (§1) Animals were vaccinated subcutaneously with 100 μg peptide in DMSO/H2O in a 1:1 emulsion with incomplete Montanide ISA 51 VG. Montanide ISA 51 VG+DMSO/H2O served as a control vaccine. For subsequent analysis of the immune response to the ArgLong2 peptide, mice were sacrificed on day 7 and spleen and draining lymph nodes (dLNs) were harvested for ELISPOT setup.
Each animal was inoculated subcutaneously into the right flank with 0.5×10^6 syngeneic tumour cells in 100 μl media. Both the syngeneic B16 F10 melanoma cells line and the syngeneic MC38 colon adenocarcinoma cell line were used. Vaccinations were initiated on day 0 and repeated once a week (day 7 and day 14). Peptide and control vaccinations were performed as described above.
Tumour growth was monitored and tumours were measured approximately every second day. Tumour volume was calculated at V [mm^3]=L×W^2/2 (where L is the longest diameter and W perpendicular to L). Maximum tumor size before mice were euthanized was 864 mm^3 (L=12 mm, W=12 mm).

[3] = tested on: CD4+ and CD8+ memory T cells (CD45RO+); assay: ex vivo IFNγ ELISPOT of sorted memory T cells; format: cell-based, human
Method: For in vitro ELISPOT, PBMCs from cancer patients and healthy donors were pulsed with 20 μM of Arginase 1-derived peptides and 120 U/ml IL-2 in 24-well plates for 7 days before being used in an ELISPOT assay. The cells were placed in 96-well nitrocellulose ELISPOT plates (MultiScreen MAIP N45; Millipore) pre-coated with IFNγ capture antibody (Mabtech). Arginase peptides added to a final concentration of 5 μM and plates incubated at 37° C. for 14-16 hours. After the incubation the cells were washed off and secondary biotinylated Ab (Mabtech, cat. 3420-6-1000) was added for 2 hours at room temperature. Unbound secondary antibody was washed off and streptavidin conjugated alkaline phosphatase (AP) (Mabtech, cat. 3310-10) was added for 1 hour at room temperature. Unbound conjugated enzyme was washed off and the assay was developed by adding BCIP/NBT substrate (Mabtech, cat. 3650-10). Developed ELISPOT plates were analyzed on CTL ImmunoSpot S6 Ultimate-V analyzer using Immunospot software v5.1. Responses were reported as the difference between average numbers of spots in wells stimulated with Arginase 1 and wells without added peptide.
CD4+ and CD8+ memory T cells were sorted from freshly thawed healthy donor or cancer patient PBMC samples using magnetic bead sorting kits: Memory CD4+ T Cell Isolation Kit, human (cat. 130-091-893, Miltenyi Biotec) and CD8+ Memory T Cell Isolation Kit, human (cat. 130-094-412, Miltenyi Biotec). The purity of isolated cells was assessed by staining for CD4-FITC, CD8-PerCP, CD45RO-PE (all from BD Biosciences), dead cells were stained using LIVE/DEAD™ Fixable Near-IR Dead Cell Stain Kit (Invitrogen™, ThermoFisher Scientific).
To test that CD4+ and CD8+ memory T cells were sorted from PBMCs of cancer patients and healthy donors that had shown a strong spontaneous immune response ex vivo. […] The purity of memory T cell isolation was confirmed by flow cytometric analysis for CD4+ CD45RO+ and CD8+ CD45RO+ T cells and was determined to be >95%. […] Clear CD8+ memory responses could be detected in 2 healthy donors (see FIG. 4C).

C57BL/6 mice = assay: Peptide vaccination of C57BL/6 mice, IFNγ ELISPOT of spleen and draining lymph node cells; format: in vivo, mouse; conditions: 100 μg peptide s.c. with Montanide ISA 51 VG; one vaccination; day 7; spleen and dLNs; FIG. 6
Method: as §1
Murine immune cells were subjected to ELISPOT analysis. Single cell suspension was prepared from spleen or dLNs by passage through a cell strainer. After lysis of red blood cells, 0.6-0.8×10^6 cells/well were seeded into ELISPOT plates coated with anti-IFNγ antibody. Peptide of interest was added to designated wells and cells were incubated overnight with peptide. The next day, cells were removed, plates washed and incubated with biotinylated detection antibody. Finally, after addition of Streptavidin-ALP and substrate visible spots appear. Each spot corresponds to an individual IFNγ producing cell. Plates were analysed in an Immunospot analyser and plotted.

Q: “ISAKDIVYIGLRDVDPGEHYILKTLGIKYFSMTEVDRL (Peptide fragment of human Arginase 1 (ArgLong2)) [38-mer, positions 169-206 of full length human Arginase 1]” was tested. Which “responses in IFNγ ELISPOT (in words)” value ([1]; PBMCs from 6 healthy donors, peptide and low dose IL-2 for 1 week, FIG. 1) did it give?
A: superior at stimulating T cell responses

Q: And the “peptide specific spots in IFNγ ELISPOT where too numerous to count (TNTC)” value ([1]; TNTC in six healthy donors and 2 cancer patients, 2.2-5×10^5 PBMCs/well, FIG. 2)?
A: > 500 spots

Q: What about the “donors with high responses in IFNγ ELISPOT” value ([1]; out of 6 healthy donors, PBMCs stimulated with peptide and low dose IL-2 for 1 week, FIG. 1) of the same sequence?
A: 4 donors

Q: What about the “cancer patients showing responses in IFNγ ELISPOT” value ([1]; out of 16 cancer patients (8 melanoma, 6 multiple myeloma, 1 breast cancer, 1 renal cell carcinoma), strong responses counted for ArgLong2, FIG. 2) of the same sequence?
A: 8 cancer patients

Q: And the “healthy donors showing responses in IFNγ ELISPOT” value ([1]; out of 19 healthy donors, strong responses counted for ArgLong2, FIG. 2)?
A: 14 healthy donors

Q: And the “tumour growth vs control vaccination, MC38” value [2]?
A: significantly delay tumour growth

Q: And the “cancer patients with CD4+ memory responses” value ([3]; sorted CD4+ CD45RO+ T cells from 2 cancer patients, FIG. 4B)?
A: 2 cancer patients

Q: What about the “healthy donors with CD4+ memory responses” value ([3]; sorted CD4+ CD45RO+ T cells from 4 healthy donors, FIG. 4B) of the same sequence?
A: 3 healthy donors

Q: And the “healthy donors with clear CD8+ memory responses” value ([3]; sorted CD8+ CD45RO+ T cells, FIG. 4C)?
A: 2 healthy donors

Q: What about the “immunogenicity in mice (vaccine-specific T cell responses, IFNγ ELISPOT)” value (C57BL/6 mice) of the same sequence?
A: strongly immunogenic
